Data from paper PMC5326799, “Discovery of Compounds that Positively Modulate the High Affinity Choline Transporter” (Frontiers in Molecular Neuroscience, 2017).
“Also recorded” adds a separate entry of the source. Where two headings read alike, the source gives them in different places.

Key:
CHT [1] = biological target: T1, CHT (Homo sapiens, UniProt Q9GZV3); assay: Live cell anti-FLAG immunolabeling of CHT cell surface localization in CHT-WT4 cells; type: cell-based; parameters: expressed in transfected cells; host or cells: HEK-293, lentiviral transduction, single-cell clone CHT-WT4; conditions: 1 or 10 μM for 1 h, qualitative observations
T1 sequence (Q9GZV3 1-580): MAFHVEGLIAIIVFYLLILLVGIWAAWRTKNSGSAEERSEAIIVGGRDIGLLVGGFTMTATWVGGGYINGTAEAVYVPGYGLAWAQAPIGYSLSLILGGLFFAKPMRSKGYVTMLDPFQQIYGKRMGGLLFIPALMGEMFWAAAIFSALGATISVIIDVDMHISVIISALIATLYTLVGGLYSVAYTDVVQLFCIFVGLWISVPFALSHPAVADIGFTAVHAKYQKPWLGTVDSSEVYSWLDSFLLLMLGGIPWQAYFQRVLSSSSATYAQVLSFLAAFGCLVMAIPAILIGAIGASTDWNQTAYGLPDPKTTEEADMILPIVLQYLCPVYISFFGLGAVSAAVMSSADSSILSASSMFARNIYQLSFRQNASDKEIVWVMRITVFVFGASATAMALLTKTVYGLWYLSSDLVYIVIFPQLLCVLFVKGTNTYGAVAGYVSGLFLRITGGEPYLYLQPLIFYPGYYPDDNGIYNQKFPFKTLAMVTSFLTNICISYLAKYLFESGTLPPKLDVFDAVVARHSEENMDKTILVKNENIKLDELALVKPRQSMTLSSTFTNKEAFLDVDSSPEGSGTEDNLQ
Description: Media was removed and cells were washed once with HBSS (+/+). 1 μg/mL Anti-FLAG antibody (F3165, Sigma) was diluted in HBSS (+/+) and added to the cellular monolayer for 30 mins. After incubation, cells were washed three times with HBSS (+/+) followed by incubation with 1:5,000 AF488 labeled secondary antibody (LifeTech) diluted in HBSS (+/+) for 30 min. After three washes, cells were fixed with 4% paraformaldehyde in HBSS (+/+) for 15 min. Nuclei were counterstained with the nuclear dye Hoechst. All images were captured and analyzed on an epifluorescent microsope or Cellomics platform.
Thus, understanding compound effects on CHT density and activation state in the synaptic membrane may aid interpretation of the effects on cholinergic neurotransmission. Conventional methods such as cell surface biotinylation present challenges in terms of the requirement of large quantities of cells and low throughput. […] Our CHT overexpression construct contains a FLAG tag on the N-terminus which we sought to utilize with antibody detection in non-permeabilized cells. […] We proceeded to investigate the effect of compound treatment in more detail. Cells were incubated with compounds at 1 or 10 μM for 1 h before immunolabeling and visualization.

CHT [2] = biological target: T1, CHT; conditions: for D9-choline uptake % effect 1 μM: 1 μM compound; for D9-choline uptake % effect 1 μM / D9-choline uptake % effect 10 μM: HEK293 CHT-WT4, DMSO negative control, 10 μM STS positive control; for D9-choline uptake % effect 10 μM: 10 μM compound
SH-SY5Y cell line = assay: [3H]Choline uptake in untransformed SH-SY5Y cell line; type: cell-based; conditions: 1 μM HC-3, 10 μM STS
Description: (§1) Supplementary file Image1.JPEG: Supplementary Figure 1 [^3H] […] Click here for additional data file.

SH-SY5Y cells = assay: Radiometric CHT transport in SH-SY5Y cell backgrounds; type: cell-based; conditions: potentiation could not be demonstrated
Description: (§2) A preponderance of literature precedent for measuring high affinity choline uptake (HACU) utilizes a radiometric assay to measure [^3H]Choline transport in preparations. […] A number of parameters were assessed in assay development including cell seeding density, time of assay post-seeding, plate coating, buffer composition, read time and choline concentration.

SK-N-FI cell line = assay: [3H]Choline uptake in untransformed SK-N-FI cell line; type: cell-based; conditions: 1 μM HC-3, 10 μM STS
Description: as §1

CHT [3] = biological target: T1, CHT; assay: cell-based
[4] = biological target: T2, high affinity choline transporter (CHT) (Homo sapiens, UniProt Q9GZV3); assay: Radiometric [3H]Choline uptake assay (scintillation proximity) in HEK cells expressing CHT; type: cell-based; conditions: for 3H-choline uptake % effect 1 μM: 1 μM compound; for 3H-choline uptake % effect 1 μM / 3H-choline uptake % effect 10 μM: 100% = 10 μM Staurosporine, 0% = DMSO; for 3H-choline uptake % effect 10 μM: 10 μM compound; for CHT modulator classification in radiometric assay: single point 1 and 10 μM, actives in 10-point dose response
T2 construct: expressed in transfected cells; host or cells: HEK-293, lentiviral transduction, single-cell clone CHT-WT4
T2 sequence (Q9GZV3 1-580): T1 sequence (Q9GZV3 1-580)
Description: Uptake of [^3H]Choline (American Radiochemicals; ART 0197; 1,000 Ci/vial; Specific Activity 60–90 Ci/mmol) was measured in HEK cells expressing the high affinity choline transporter (CHT), clone WT4. Cells were plated at 50,000 cells /well in 200 μL culture media on a PDL coated Cytostar-T 96 well plate (Perkin Elmer) 24 h prior to assay. On the day of assay, following two washes and a 30 min pre-incubation at 37°C in 50 μL Na(−) free buffer (0.54 mM KCl, 1.3 mM CaCl2, 0.53 mM MgCl2, 0.4 mM MgSO4, 0.37 mM KH2PO4, 240 mM Sucrose, 4.4 mM Tris-phosphate, 5.5 mM Glycine, 5.6 mM D-Glucose; pH 6.5 with KOH), 25 μL 4X control or test compounds in Na(−) buffer were added to the cells. […] Final DMSO concentration was 0.25%. Following a 30 min incubation at 37°C, 25 μL [^3H]Choline diluted to 320 nM (80 nM final concentration) was added in Na(+) buffer (0.54 mM KCl, 1.3 mM CaCl2, 0.53 mM MgCl2, 0.4 mM MgSO4, 0.37 mM KH2PO4, 138 mM NaCl, 0.28 mM Na2HPO4, 5.5 mM Glycine, 5.6 mM D-Glucose; pH 6.5 with KOH). Plates were sealed with TopSeals (Perkin Elmer) and incubated in darkness for 3 h at room temperature before reading using a Wallac Microbeta, 1 min/well.
as §2

CHT [5] = biological target: T1, CHT; assay: SURFE2R solid supported membrane (SSM) electrophysiology on CHT-WT4 membrane fragments; type: biochemical; parameters: expressed in transfected cells; host or cells: HEK-293, lentiviral transduction, single-cell clone CHT-WT4
Description: A single cell clone of HEK293 overexpressing CHT (CHT-WT4) cells was used to generate membrane fragments to assess on the SURFE^2R platform. Cells were grown to 80% confluence and harvested. The membrane fraction was collected by ultracentrifugation and the plasma membranes were isolated by density gradient centrifugation (Schulz et al., [2008]).
All experiments were performed on the SURFE^2R N1 device and the matching N1 sensor blanks (Nanion Technologies GmbH, Munich). The sensor blanks include a 3 mm diameter gold surface inside a small well coated by incubating 50 μL of 0.5 mM 1-octadecanethiol dissolved in isopropanol for 30 min, rinsed once with isopropanol and twice with water (ddH2O) and dried for 30 min at room temperature.
7.5 μg/μL DPhPC (Avanti Polar Lipids) was dissolved in n-Decane. 1.5 μL were added onto the thiol-coated gold surface. Immediately, 80 μL of potassium buffer was added carefully. The CHT membrane preparation was diluted 1:10 with potassium buffer and sonicated. Eight microliter were added directly onto the SSM by submerging the pipette into the buffer and the sensors were centrifuged for 30 min at 2,200 × g. The quality of the SSM was controlled by determination of conductance σ and capacitance C. The SURFE^2R N1 device includes default functions to perform these measurements. Sensors should have a conductance below 3 nS and capacitance below 20 nF.
Prepared sensors were inserted into the faraday cage of the SURFE^2R N1 device and buffers applied via its automatic perfusion system, allowing rapid buffer exchange in a continuous liquid flow. The following buffer addition sequence was used for all experiments: Sodium buffer was applied for 2 s with a flow rate of 200 μl/s to establish a sodium gradient over the membrane. […] During those 6 s the current response was recorded. […]
Raw data were exported as ASCII files, analysis was performed using the scientific graphing and data analysis program IGOR Pro 6 (WaveMetrics, Portland, USA). The evaluated peak currents were determined using a peak detection algorithm. […]

[6] = test system: high affinity choline transporter (CHT); parameters: method as in earlier work; conditions: ref Okuda and Haga, 2000, Okuda et al., cited from earlier work
[7] = biological target: T2, high affinity choline transporter (CHT); assay: Radiometric [3H]Choline uptake assay (scintillation proximity) in HEK cells expressing CHT; type: cell-based; conditions: HEK293, read-out: % inhibition of [3H]Choline uptake by HC-3, 1 μM
[8] = 3H-choline uptake IC50 or EC50(M), PAM compounds, 10-point dose response, HEK293 CHT-WT4, n.d. = not detected
[9] = inhibitor/NAM compounds, 10-point dose response, HEK293 CHT-WT4, read-out: 3H-choline uptake IC50 or EC50
[10] = EC50 estimate, [3H]Choline uptake (positive modulators), CHT-WT4 cells, 10-point dose response
[11] = PAM compounds, 10-point dose response, HEK293 CHT-WT4, n.d. = not detected, read-out: 3H-choline uptake IC50 or EC50

COc1ccc(C(=O)NCc2cc(C(C)C)no2)cc1OC1CCN(C)CC1 [ML-352, reference compound]
Effect on cell surface localization of CHT (CHT [1]): increase in cell surface localization; also recorded: increase transporter density on the cell surface | D9-choline uptake % effect 1 μM (CHT [2]): 96.3% | D9-choline uptake % effect 10 μM (CHT [2]): 104.1%

CN[C@@H]1C[C@H]2O[C@@](C)([C@@H]1OC)n1c3ccccc3c3c4c(c5c6ccccc6n2c5c31)C(=O)NC4 [STS, staurosporine]
Effect on [3H]Choline uptake (SH-SY5Y cell line): No effect | Potentiation of CHT transport in SH-SY5Y cell backgrounds (SH-SY5Y cells): toxicity | Effect on [3H]Choline uptake (SK-N-FI cell line): No effect | EC50 (CHT [3]): 507 nM | EC50 [4, 8]: 1.7e-06 M

CNC(=O)C1CCC(Nc2nc(Nc3ccc(S(C)(=O)=O)cc3)ncc2C(F)(F)F)C1 (centres unmarked) [Compound 7]
Effect on cell surface localization of CHT (CHT [1]): no effects; also recorded: no apparent effect | D9-choline uptake % effect 1 μM (CHT [2]): 46.4% | D9-choline uptake % effect 10 μM (CHT [2]): 80.8% | EC50 (CHT [3]): 2490 nM | 3H-choline uptake % effect 1 μM ([4]; HEK293 CHT-WT4): −2.4% | 3H-choline uptake % effect 10 μM ([4]; HEK293 CHT-WT4): 26.7%

Cc1oc2nc3c(c(NC(=O)CN4CCCC4=O)c2c1C)CCCC3 [MKC-231, coluracetam, reference compound]
Effect on cell surface localization of CHT (CHT [1]): no apparent effect | Effect on CHT current (SURFE2R) (CHT [5]; CHT-WT4 membrane preparations): not able to detect any effect | Effect on D9-choline uptake (CHT [2]; 10-point dose response): no apparent effect | Impact on CHT mediated transport, [3H]Choline uptake ([4]; CHT-WT4 cells, 10-point dose response): unable to see any impact | Impact on CHT mediated transport, [3H]Choline uptake ([4]; CHT-WT4 cells, 10-point dose response, listed as MKC231): no apparent effect

O=C(NCc1ccc(Cl)cc1)c1cn2c(N3CCNCC3)nccc2n1 [Compound 5]
IC50 [4, 9]: 670 nM | CHT modulator classification in radiometric assay [4]: negative allosteric modulators

O=C(Cn1c(=O)oc2ccccc21)Nc1ccnc2ccccc12 [Compound 2]
EC50 [4, 10]: 4e-07 M | EC50 [4, 11]: 4.16e-07 M | CHT modulator classification in radiometric assay [4]: positive allosteric CHT modulators

CNC(=O)C1CCCN1c1nc(Cc2ccccc2F)cc(Nc2cc(C3CC3)[nH]n2)n1 (centres unmarked) [Compound 6]
Effect on cell surface localization of CHT (CHT [1]): no effects; also recorded: no apparent effect | D9-choline uptake % effect 1 μM (CHT [2]): 60.8% | D9-choline uptake % effect 10 μM (CHT [2]): 91.6% | EC50 (CHT [3]): 2050 nM | 3H-choline uptake % effect 1 μM ([4]; HEK293 CHT-WT4): 3.6% | 3H-choline uptake % effect 10 μM ([4]; HEK293 CHT-WT4): 23.6%

O=C(NCc1ccc(Cl)cc1)c1ccc2snc(N3CCNCC3)c2c1 [Compound 4]
D9-choline uptake % effect 1 μM (CHT [2]): 12.3% | D9-choline uptake % effect 10 μM (CHT [2]): 118.1% | IC50 (CHT [3]): 3130 nM | IC50 [4, 9]: 1540 nM | CHT modulator classification in radiometric assay [4]: negative allosteric modulators

C[N+](C)(C)CCO [choline, Choline Chloride]
Km ([6]; Apparsundaram et al., 2001, read-out: Km, high-affinity sodium-dependent choline uptake): ~2 µM | EC50 (CHT [5]): 25000 nM

O=C(CC1=CCCCC1)Nc1ccnc2ccccc12 [Compound 1]
EC50 [4, 10]: 3e-07 M | EC50 [4, 11]: 2.75e-07 M | CHT modulator classification in radiometric assay [4]: positive allosteric CHT modulators

NC(=O)N1C(=O)C(C(=O)Cc2ccccc2)c2cc(F)ccc21 (centres unmarked) [Compound 3]
EC50 [4, 8]: 4.51e-06 M | EC50 [4, 10]: 4.5e-06 M | CHT modulator classification in radiometric assay [4]: positive allosteric CHT modulators

Cn1ncc2nc(-c3ccnc(N)c3)nc(N3CCNCC3(C)C)c21 [Compound 9]
Effect on cell surface localization of CHT (CHT [1]): increased cell surface localization; also recorded: distinct increase in apparent cell surface localization | D9-choline uptake % effect 1 μM (CHT [2]): 30.5% | D9-choline uptake % effect 10 μM (CHT [2]): 64.0% | EC50 (CHT [3]): 5760 nM | 3H-choline uptake % effect 1 μM ([4]; HEK293 CHT-WT4): 24.4% | 3H-choline uptake % effect 10 μM ([4]; HEK293 CHT-WT4): 100.0%

N#Cc1c[nH]c2ncnc(N3CCC4(CC3)CNCc3ccc(C(F)(F)F)nc34)c12 [Compound 8]
Effect on cell surface localization of CHT (CHT [1]): increased cell surface localization; also recorded: distinct increase in apparent cell surface localization | D9-choline uptake % effect 1 μM (CHT [2]): 24.5% | D9-choline uptake % effect 10 μM (CHT [2]): 80.2% | EC50 (CHT [3]): 5100 nM | 3H-choline uptake % effect 1 μM ([4]; HEK293 CHT-WT4): 9.0% | 3H-choline uptake % effect 10 μM ([4]; HEK293 CHT-WT4): 52.6%

C[N+]1(C)CCOC(O)(c2ccc(-c3ccc(C4(O)C[N+](C)(C)CCO4)cc3)cc2)C1 (centres unmarked) [HC-3, hemicholinium-3, reference compound]
Effect on cell surface localization of CHT (CHT [1]): increase in cell surface localization; also recorded: increase transporter density on the cell surface | Effect on [3H]Choline uptake (SH-SY5Y cell line): No effect | Ki ([6]; Apparsundaram et al., 2001, read-out: Ki, inhibition of choline uptake): 1 to 5 nM | Effect on [3H]Choline uptake (SK-N-FI cell line): No effect | inhibition at 1 µM ([7]; CHT-WT5 clone): ~61% | inhibition at 1 µM ([7]; CHT-WT Pool): ~69% | IC50 (CHT [5]): 20.4 nM | IC50 (CHT [3]): 5.6 nM | IC50 [4]: 116 nM | inhibition at 1 µM ([4]; HEK293, read-out: % inhibition of [3H]Choline uptake by HC-3, 1 μM, CHT-WT4 clone): ~80%
